This assay relates to mouse hair follicle epithelial cells. The assay is described as follows: Cell growth-promoting effect on cultured mouse hair follicle epithelial cells (MTT). The following applies: C3H mouse hair follicle epithelial cells, 5 days culture, DMSO control = 100. The format is cell-based.

Description: Mouse hair follicle epithelial cells were separated and cultured according to a modification of the method of Tanigaki, et al. [Archives of Dermatological Research, 284, 290-296 (1992)].
The skin on the back of a 4-days-old C3H mouse (Charles River Japan, Inc.) was cut off and treated with MEM (Eagle's Minimum Essential Medium) containing 500 units/ml Dispase (Godo Shusei Co., Ltd.) and 5% fetal calf serum (FCS) at 4° C. for 16 hours.
Then, the epidermis was stripped from the skin section, and the obtained dermis layer was treated with DMEM (Dulbecco's modified Eagle Medium) containing 0.25% Collagenase N-2 (Nitta Gelatin Co., Ltd.) and 10% FCS at 37° C. for one hour to obtain a dermis suspension. The dermis suspension was filtered through a 212-μm nylon mesh (Nippon Rikagaku Kikai Co., Ltd.) and the filtrate was centrifuged at 1000 rpm for 5 minutes to obtain pellets containing hair follicle tissue. To the pellets was added calcium/magnesium-free PBS (Dulbecco's Phosphate-Buffered Saline) and the pellets were suspended therein using a pipette. The resulting suspension was allowed to stand for 15 minutes to precipitate hair follicle tissue. The same procedure as above (addition of calcium/magnesium-free PBS, suspending by use of a pipette, and precipitation by allowing the suspension to stand for 15 minutes) was repeated three times using the obtained hair follicle tissue.
Then, the hair follicle tissue was treated with a solution containing 0.1% ethylenediaminetetraacetic acid (EDTA) and 0.25% trypsin (Gibco) at 37° C. for 5 minutes. To the resulting mixture was added DMEM containing 10% FCS to prepare a hair follicle tissue cell suspension having a density of 3×10^5 cells/ml. The hair follicle tissue cell suspension was put into wells of a 24-well collagen-coated plate (Iwaki Glass Co., Ltd.) in an amount of 1 ml/well, followed by culturing in 5% CO2 at 37° C. for 24 hours.
During the culturing, the medium was replaced with a fresh one every other day.
As a control, the cells were cultured in the same medium as above except that DMSO alone was added in an amount of 1/100 by volume in place of DMSO containing a phosphatidic acid, and/or procyanidin B-2 or dl-α-tocopherol.
The degree of cell growth was measured according to the method using MTT [3-(4,5-dimethylthiazol-2-yl)-2,5-diphenyl tetrazolium bromide]
To each well of the 24-well microplate (2 cm^2/well) was added a PBS solution of MTT (5 mg/ml) in an amount of 1/10 by volume based on 1 ml of the culture. The plate was shaken to make the mixture homogeneous, followed by culturing in 5% CO2 at 37° C. for 4 hours.

Turning to `CCCCCCCC/C=C\CCCCCCCC(=O)OCC(COP(=O)(O)O)OC` (centres unmarked) [1-O-oleoyl-2-O-methylglyceryl-3-phosphoric acid], the “Relative cell growth rate based on the control as 100” value (“Relative cell growth rate based” below) (active ingredient 1 μmol/l) was 163.

In the case of `Oc1cc(O)c2c(c1)O[C@H](c1ccc(O)c(O)c1)[C@H](O)[C@H]2c1c(O)cc(O)c2c1O[C@H](c1ccc(O)c(O)c1)[C@H](O)C2` [Procyanidin B-2, epicatechin-(4β→8)-epicatechin], the “Relative cell growth rate based” value (active ingredient 30 μmol/l) was found to be 310. On the same count and under the same terms, to `Cc1c(C)c2c(c(C)c1O)CCC(C)(CCCC(C)CCCC(C)CCCC(C)C)O2` (racemic) [dl-α-Tocopherol, dl-α-tocopherol, reference compound] belongs 184. For `CCCCCCCCCCCCCCCCOCC(COP(=O)(O)O)OC(C)=O` (centres unmarked) [1-O-hexadecyl-2-O-acetylglyceryl-3-phosphoric acid], where the note is “active ingredient 1 μmol/l”, the “Relative cell growth rate based” value was 155. With `CCCCCCCCCCCCCCCCOCC(COP(=O)(O)O)OC` (centres unmarked) [1-O-hexadecyl-2-O-methylglyceryl-3-phosphoric acid], the “Relative cell growth rate based” value (active ingredient 1 μmol/l) was determined as 177.

The values above are taken from patent US6562804B2, “Hair-growing agent” (Kyowa Hakko Kogyo Co., Ltd., priority 2001, dated 2003).
